From patent US20110196006A1, “IMAZALIL COMPOSITIONS COMPRISING ALKOXYLATED AMINES” (priority 2004, published 2011) come the findings set out here.

The test system of assay [1] is Microdochium nivale. The experiment in a line: Experiment 1: poison plate assay (growth inhibition, MIC). In kind it is cell-based. Particulars: potato dextrose agar, 21° C., dark, 75% relative humidity, imazalil 6.66-1.58 ppm, alkoxylated amine 26.66-6.33 ppm, combinations imazalil:amine 1 to 4. On the procedure: Activity against growth of Microdochium nivale was determined with the poison plate assay. A calculated amount of a stock solution (containing either imazalil or an alkoxylated amine of formula (I) dissolved in dimethyl sulfoxide was pipetted into multiwell plates. Culture medium (potato dextrose agar) was added aseptically and uniform distribution was obtained by shaking. The plates were inoculated with the test fungus Microdochium nivale (suspension of 6.10^5 spores/ml). The multi-well plates were kept in the dark at 21° C. and a relative humidity of 75%. The stock solution comprising imazalil at a concentration of 2000 ppm was pipetted in the multiwell plates in order to reach a final test concentration in six decreasing steps ranging from 6.66, 5.00, 3.75, 2.81, 2.11 and 1.58 ppm. The stock solution comprising an alkoxylated amine of formula (I) at a concentration of 8000 ppm was pipetted in the multiwell plates in order to reach a final test concentration in six decreasing steps ranging from 26.66, 20.00, 15.00, 11.25, 8.44, and 6.33 ppm wherein the ratio of imazalil to alkoxylated amine of formula (I) is 1 to 4 in each of the wells containing both imazalil and alkoxylated amine (I). The lowest concentration of each test compound or mixture of test compounds sufficient to inhibit visible growth was taken as the minimum inhibitory concentration (MIC). The MIC were taken as end points of activity. End points for the combinations of imazalil with an alkoxylated amine of formula (I) were then compared with the end points for these test compound when employed individually.

Assay [2] has as its system Microdochium nivale. The experiment in a line: Experiment 2: poison plate assay (growth inhibition, MIC). Particulars: as Experiment 1, imazalil 10-2.37 ppm, alkoxylated amine 40-9.49 ppm. In kind it is cell-based. On the procedure: Activity against growth of Microdochium nivale was determined with the poison plate assay. A calculated amount of a stock solution (containing either imazalil or an alkoxylated amine of formula (I) dissolved in dimethyl sulfoxide was pipetted into multiwell plates. Culture medium (potato dextrose agar) was added aseptically and uniform distribution was obtained by shaking. The plates were inoculated with the test fungus Microdochium nivale (suspension of 6.10^5 spores/ml). The multi-well plates were kept in the dark at 21° C. and a relative humidity of 75%. The lowest concentration of each test compound or mixture of test compounds sufficient to inhibit visible growth was taken as the minimum inhibitory concentration (MIC). The MIC were taken as end points of activity. End points for the combinations of imazalil with an alkoxylated amine of formula (I) were then compared with the end points for these test compound when employed individually. A similar poison plate assay was run as described in Experiment 1, but the final concentrations of imazalil now ranged from 10, 7.50, 5.63, 4.22, 3.16 to 2.37 ppm. The final concentrations of alkoxylated amine of formula (I) now ranged from 40, 30, 22.50, 16.88, 12.66 to 9.49 ppm.

Setting [3] is: Microdochium nivale, read-out: MIC-values (lowest concentration sufficient to inhibit visible growth).

In the case of `C=CCOC(Cn1ccnc1)c1ccc(Cl)cc1Cl` (centres unmarked) [imazalil], the figures for the MIC with Microdochium nivale [1] (setting [3]) and with Microdochium nivale [2] (setting [3]) were 2.81 µg/mL and 3.16 µg/mL, respectively.

“N,N′,N′-tris(2-hydroxyethyl)-N-cocoalkyl-1,3-diaminopropane [ethoduomeen C13]”: the “MIC-values (lowest concentration sufficient to inhibit visible growth)” value with Microdochium nivale [2] is more than 40 ppm.

For the compound “N,N′,N′-tris-(2-hydroxyethyl)-N-tallowalkyl-1,3-diaminopropane [ethoduomeen T13]”, in the assay on Microdochium nivale [1], the “MIC-values (lowest concentration sufficient to inhibit visible growth)” value was more than 26.7 ppm.

For the compound “bis-(2-hydroxyethyl)cocoalkylamine [ethomeen C12]”, the “MIC-values (lowest concentration sufficient to inhibit visible growth)” value in the assay on Microdochium nivale [1] is reported as more than 26.7 ppm.
